Measured values: publication PMC9598318, “Latent Tuberculosis: A Promising New Compound to Treat Non-Replicating and Intramacrophagic Mycobacteria” (Biomedicines, 2022)
In brackets after ≈: the same amount, converted by molar mass. Several values for one entry are separate records, joined by “and”; a condition that tells them apart may be missing. Identical values can stand only once. Like-named read-outs stand apart in the source and are kept apart here.

Tests used:
[1] = system: Salmonella Typhimurium (ATCC 14028); assay: Activity spectrum, microdilution; format: cell-based; details: 24 h, absorbance 600 nm
[2] = system: Pseudomonas aeruginosa (ATCC 13388); assay: Activity spectrum, microdilution; format: cell-based; details: 24 h, absorbance 600 nm
[3] = system: Staphylococcus aureus (ATCC 6538); assay: Activity spectrum, microdilution; format: cell-based; details: 24 h, absorbance 600 nm
[4] = system: Escherichia coli (ATCC 11775); assay: Activity spectrum, microdilution; format: cell-based; details: 24 h, absorbance 600 nm
[5] = system: Mycobacterium tuberculosis H37Rv (ATCC 27294), replicating; assay: MIC90 against replicating M. tuberculosis (resazurin microtiter assay, REMA); format: cell-based; details: 7 days; for MIC90: Mycobacterium tuberculosis, 168 h
[6] = system: non-replicating (NRP) M. tuberculosis; assay: LORA, MIC90 against non-replicating M. tuberculosis; format: cell-based, Mycobacterium tuberculosis
Method: The LORA method was used to determine the MIC90 of compounds against latent/non-replicating (NRP) mycobacteria. According to Wayne and Sohaskey (2001) [18], under a low-oxygen atmosphere, NRP mycobacteria, containing the plasmid pFCA-ABCDE that encodes a luminescent protein in aerated environments, were plated in a 96-well plate with 100 mL of compounds in a range of 0.39 to 100 μg/mL.

[7] = system: J774A.1 (ATCC TIB-67) cells; assay: Cytotoxicity against macrophage cells (resazurin); format: cell-based, mice; details: for IC50: Mus musculus
[8] = system: intramacrophagic M. tuberculosis H37Rv; assay: Intramacrophagic activity (J774A.1 macrophages infected with M. tuberculosis H37Rv, CFU count); format: cell-based, Mycobacterium tuberculosis; details: 5× MIC (6.15 μM), 3 days of exposure
[9] = system: Mycobacterium smegmatis mc2155 (ATCC 700084); assay: MIC90 against M. smegmatis (resazurin); format: cell-based; details: for Spectrum activity, M. smegmatis: 2 days, resazurin
[10] = system: MRC-5 (ATCC CCL-171) cells
[11] = system: MRC-5 (ATCC CCL-171) cells; assay: cells; details: Homo sapiens
M. tuberculosis = assay: Time-kill curve; format: cell-based, Mycobacterium tuberculosis; details: MIC and 2× MIC, 15 days
[12] = system: latent tuberculosis infection (LTBI); details: cited from earlier work; for Efficacy in preventing progression to active tuberculosis infection: LTBI patients, monotherapy, ref Huaman et al. (2019) [28]
[13] = Mycobacterium tuberculosis, LORA, low-oxygen
[14] = J774A.1 ATCC TIB-67, 24 h, J774A.1, 24 h
[15] = J774A.1 ATCC TIB-67, 48 h, J774A.1, 48 h
[16] = J774A.1 ATCC TIB-67, 72 h, J774A.1, 72 h

Question: Which results are given for `CNC(C)C1CCC(N)C(OC2C(N)CC(N)C(OC3OCC(C)(O)C(NC)C3O)C2O)O1` (stereo not drawn) [Gentamicin]?
Answer: Spectrum activity, S. typhimurium [1]: 1.16 ± 0.38 µg/mL; Spectrum activity, P. aeruginosa [2]: 2.02 ± 0.66 µg/mL; Spectrum activity, S. aureus [3]: 3.97 ± 2.35 µg/mL; Spectrum activity, E. coli [4]: 5.07 ± 0.14 µg/mL

Question: What does the source list for `CC1=NN(C(=O)c2ccncc2)C(O)(c2ccccc2)C1` (stereo not drawn) [Hydrazone 14]?
Answer: MIC90 Replicating [5]: 1.23 ± 0.53 µM (≈ 0.346 µg/mL); MIC90 [5]: 1.23 µM and 0.35 µg/mL; MIC90 Non-Replicating ([6]; LORA, low-oxygen): 6.31 ± 5.72 µM (≈ 1.78 µg/mL); MIC90 [6, 13]: 6.31 µM and 1.77 µg/mL; IS (selectivity index) ([7]; IC50/MIC90, J774A.1, 24 h): >289.02; IS (selectivity index) ([7]; IC50/MIC90, J774A.1, 48 h): 240.88; IS (selectivity index) ([7]; IC50/MIC90, J774A.1, 72 h): 236.46; IC50 [7, 14]: > 100 mg/L; IC50 [7, 15]: 83.3 ± 28.9 mg/L (≈ 296 µM); IC50 [7, 16]: 81.8 ± 31.5 mg/L (≈ 291 µM); intramacrophagic inhibition (log reduction vs untreated) [8]: 0.5 log10 CFU/mL; Spectrum activity, S. typhimurium [1]: >100 µg/mL; Spectrum activity, P. aeruginosa [2]: >100 µg/mL; Spectrum activity, S. aureus [3]: >100 µg/mL; Spectrum activity, E. coli [4]: >100 µg/mL; growth inhibition of M. smegmatis [9]: unable to inhibit the mycobacteria growth; Spectrum activity, M. smegmatis [9]: >25.0 µg/mL; cytotoxicity [10]: no detectable cytotoxicity; IS (selectivity index) ([10]; IC50/MIC90, MRC-5, 24 h): >289.02; IS (selectivity index) ([10]; IC50/MIC90, MRC-5, 48 h): >289.02; IS (selectivity index) ([10]; IC50/MIC90, MRC-5, 72 h): >289.02; IC50 ([11]; MRC5, 24 h): > 100 mg/L; IC50 ([11]; MRC5, 48 h): > 100 mg/L; IC50 ([11]; MRC5, 72 h): > 100 mg/L

Question: For `NNC(=O)c1ccncc1` [Isoniazid], which MIC90 [5] is on record?
Answer: The MIC90 was 0.44 µM and 0.06 µg/mL.

Question: And the “inhibition of non-replicating bacteria” value ([6]; LORA assay)?
Answer: Its value is “non-inhibition”.

Question: And the MIC90 ([6]; LORA, low-oxygen)?
Answer: Its MIC90 is over 328.13 µM.

Question: And the MIC90 [6, 13]?
Answer: The MIC90 was > 300 µM and > 45 µg/mL.

Question: And the “IS (selectivity index)” value [7]?
Answer: The value was over 1666.66.

Question: And the IC50 [7, 14]?
Answer: Its IC50 is over 100 mg/L.

Question: And the IC50 [7, 15]?
Answer: Its IC50 is over 100 mg/L.

Question: And the IC50 [7, 16]?
Answer: Its IC50 is over 100 mg/L.

Question: And the “death profile in time-kill curve (bactericidal = 3 log10 CFU/mL decrease)” value (M. tuberculosis)?
Answer: The value was “bacteriostatic”.

Question: And the “IS (selectivity index)” value [10]?
Answer: Its value is over 1666.66.

Question: And the IC50 ([11]; MRC5, 24 h)?
Answer: The IC50 was over 100 mg/L.

Question: What about the IC50 ([11]; MRC5, 48 h) of the same molecule?
Answer: The IC50 was over 100 mg/L.

Question: What about the IC50 ([11]; MRC5, 72 h) of the same molecule?
Answer: Its IC50 is over 100 mg/L.

Question: What about the “Efficacy in preventing progression to active tuberculosis infection” value [12] of the same molecule?
Answer: Its value is 90%.

Question: What about the “TB activation after LTBI treatment” value ([12]; share of cases, INH monotherapy) of the same molecule?
Answer: Its value is 10%.

Question: With `CO[C@H]1/C=C/O[C@@]2(C)Oc3c(C)c(O)c4c(O)c(c(/C=N/N5CCN(C)CC5)c(O)c4c3C2=O)NC(=O)/C(C)=C\C=C\[C@H](C)[C@H](O)[C@@H](C)[C@@H](O)[C@@H](C)[C@H](OC(C)=O)[C@@H]1C` [Rifampicin] as the molecule, how does the MIC90 [5] read?
Answer: The MIC90 was 0.05 µM and 0.04 µg/mL.

Question: And the MIC90 [6, 13]?
Answer: The MIC90 was < 0.36 µM and < 0.3 µg/mL.

Question: What about the “death profile in time-kill curve (bactericidal = 3 log10 CFU/mL decrease)” value (M. tuberculosis) of the same molecule?
Answer: Its value is “bacteriostatic”.

Question: And the “Spectrum activity, M. smegmatis” value [9]?
Answer: The value was 2.4 ± 1.5 µg/mL.

Question: What about the “Efficacy in preventing progression to active tuberculosis infection” value [12] of the same molecule?
Answer: Its value is about 90%.
